pEC50, pIC50: −log10 of the molar value. Activity calls are given as the source filed them.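 Rule for the calls: active = compounds giving half or more protection of infected cells from virus-caused growth loss, again on retest; inactive = the rest.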 Where a SMILES comes first, the peptide text is derived from it. The star is where a group is joined. CH2Cl = ClC*

The record followed here is PubChem BioAssay AID179 (DTP/NCI, 2004).

The test system of the assay is CEM cells HIV-1 protection, formazan growth assay. In words: NCI AIDS Antiviral Assay. As to conditions: for pIC50: measured here: growth of uninfected CEM cells. The method, boiled down: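 Protection of CEM cells against HIV-1 measured as cell growth via soluble formazan read-out, with five concentrations tested on both infected and uninfected cells; failure to protect may reflect toxicity.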

For the compound `CC1(C)OC(C[C@]2(C#N)C[C@H](CCl)OC(C)(C)O2)C[C@@H](C[C@]2(C#N)C[C@H](CCl)OC(C)(C)O2)O1` (stereo not given in full), the pEC50 (as a rule, −log10 of the EC50, conventionally taken in molar units) is < 3.70 and the pIC50 – broadly, the negative decadic logarithm of the IC50, by convention in mol/L – is 4.17. With `Cc1ccc(N=C2SC(c3ccc(C)cc3)(c3ccc(C)cc3)c3ccccc32)cc1`, the pEC50 was < 3.70 and the pIC50 was < 3.70.

Turning to `CC1=CC=CC(C)(C)CC1(O[Si](C)(C)C)C(F)(F)F` (stereo not given), the pEC50 was < 3.70 and the negative logarithm of the IC50 (pIC50) is 3.83. Turning to `O=[N+]([O-])c1cc(/C=N/NS(=O)(=O)c2ccc(F)cc2)c(O)c([N+](=O)[O-])c1`, the pEC50 was < 3.19 and the pIC50 was 4.43. For the compound `O=C1C(=Cc2cccc(Cl)c2)N=C(c2ccccc2)N1n1c(-c2ccccc2)nc2ccccc2c1=O`, the pEC50 is < 3.70 and the pIC50 is 4.45. For `O=C(Cc1ccccc1[N+](=O)[O-])C(CO)c1ccccc1[N+](=O)[O-]` (stereo not given), in that order: < 3.96 and < 3.96. Regarding `N#CCCC[P+](c1ccccc1)(c1ccccc1)c1ccccc1`, the pEC50 was < 3.70 and the negative-log IC50 (pIC50) was < 3.70. Take `C(=C\c1ccnc2ccccc12)/c1ccnc2ccccc12`: the pEC50 was < 4.88 and the negative-log IC50 (pIC50) was < 4.88.

In the case of `Cc1cc(C)nc(NS(=O)(=O)c2ccc(Nc3c4ccccc4nc4c(C(=O)N5CCN(CCO)CC5)cccc34)cc2)n1`, the pEC50 is < 4.44 and the pIC50 was < 4.44.

Take `CCSc1nc(C)nc2c1sc1nc3ccccc3n12`: the pEC50 is < 4.00 and the negative logarithm of the IC50 (pIC50) was < 4.00. Consider `Nc1ccccc1S(=O)(=O)N(CC(=O)O)c1ccccc1`, for which the result was inactive. For the compound `O=C1OCCOCCOCCOCCOCCOCCOC(=O)c2cccc1n2`, the pEC50 was < 3.97 and the negative-log IC50 (pIC50) is 4.25.

On to `Cc1cc2c(c3nocc13)C(=O)c1ccccc1C2=O`, for which the outcome was inactive. For `CC(C)(C)C(=O)OCOP(=O)(OCCOCn1cnc2c(=O)[nH]c(N)nc21)OCOC(=O)C(C)(C)C`, the outcome was inactive. Regarding `Cc1cn(C(CO)OC(CO)CP(=O)(O)O)c(=O)[nH]c1=O` (stereo not given), the pEC50 was < 3.70 and the pIC50 is < 3.70.

`CN(C)CCSc1cccc(-c2cc(-c3cccc(SCCN(C)C)c3)nc(SCCN(C)C)n2)c1`: the pEC50 is < 3.34 and the pIC50 was 6.15. `CCC1(N)C(=O)OCc2c1cc1n(c2=O)Cc2cc3ccccc3nc2-1` (stereo not given): the pEC50 was < 3.70 and the pIC50 was 6.09. For the compound `CCCCCCCCCCCC(=O)N(C)CCS(=O)(=O)O`, the outcome was inactive. Turning to `Nc1ccc(S2(c3ccc(N)cc3)C=C(c3ccccc3)C(c3ccccc3)=C2)cc1`, the pEC50 was < 3.70 and the negative-log IC50 (pIC50) was < 3.70. Consider `CCCCCCN(CCCCCC)C(=O)Cc1c2n(c3ccccc13)Cc1ccccc1-2`, for which the pEC50 was < 5.20 and the negative-log IC50 (pIC50) is < 5.20. With `CC(=O)[C-](C)C(C)=O.CC(=O)[C-](C)C(C)=O.NCCNCCNC(=O)c1cccc2nc3ccccc3nc12.[Cl-].[Co+3]`, the pEC50 was < 3.82 and the pIC50 is 4.50. As to `CCOC(=O)CCC(=O)Oc1ccc2c(c1OC(=O)CCC(=O)OCC)C(=O)c1ccccc1C2=O`, the pEC50 was < 4.06 and the negative-log IC50 (pIC50) was 4.33. On to `N#CCc1nc(-c2cc3ccc(O)cc3oc2=O)cs1`, for which the pEC50 is < 3.70 and the negative-log IC50 (pIC50) was 4.57. `CC(O)(c1ccc(OCCC[N+](C)(C)C)cc1)C(C)(O)c1ccc(OCCC[N+](C)(C)C)cc1` (stereo not given): the pEC50 is < 2.74 and the pIC50 is 3.10. `CC(C)(CC1=CC(=O)C=CC1=O)Cc1ccccc1`: the pEC50 is < 3.70 and the pIC50 was 4.43. For `CC(=S)NNC(=O)c1ccncc1`, in that order: < 2.89 and 3.87. The corresponding values for `O=C(CC1=NC2NN(c3ccccc3)C(=O)C2=C1CC(=O)c1ccccc1)c1ccccc1` (stereo not given) are < 3.24 and 3.76.

Turning to `C[C@H](NC(=O)OC1C2C=CC(O)C1CC2)c1ccccc1` (stereo not given in full), the pEC50 was < 3.06 and the pIC50 is 3.11.

Turning to `N#CCC(=O)N/N=C1/C(=O)NC(=O)C(=O)C1c1nc2ccccc2s1` (stereo not given), the outcome was inactive. In the case of `CCc1c(CN)c(CC)c(CNC2=NCCN2)c(CC)c1CNC1=NCCN1`, the pEC50 was < 3.70 and the pIC50 is < 3.70. For the compound `CCCCCCCCCCCCCCCCOC1OC(CS(=O)(=O)S(=O)(=O)CC2OC(OCCCCCCCCCCCCCCCC)C(O)C(O)C2O)C(O)C(O)C1O` (stereo not given), the pEC50 was < 5.10. Consider `O=C(O)/C=C\C(=O)Nn1c(Cc2ccc(Cl)cc2)n[nH]c1=O`, for which the pEC50 is < 3.70 and the negative logarithm of the IC50 (pIC50) was < 3.70. As for `COc1ccc(C2=[S+]C(c3ccccc3)(c3ccccc3)c3ccccc32)cc1`, the result was inactive. Take `CN(C)[C@@H]1C(=O)C(C(N)=O)=C(O)[C@@]2(O)C(=O)C3=C(O)c4c(O)cccc4C[C@H]3C[C@@H]12`: the pEC50 is < 3.70 and the negative logarithm of the IC50 (pIC50) is 5.45. For the compound `O=C(O)C1CC2C3CCC2C1C3=O` (stereo not given), the pEC50 is < 3.70 and the pIC50 is < 3.70. On to `COc1ccc2c(c1)C13CCCC(C)(C(=O)NC1)C3CC2` (stereo not given), for which the pEC50 was < 3.70 and the pIC50 was < 3.70. `O=C1OCc2nc3c(c(-c4ccccc4C(F)(F)F)c21)C(=O)OC3`: the result was inactive. The same measure, in the same setting: the same measure for `c1ccc(CSC2(SCc3ccccc3)CCCC2)cc1`: “inactive”; for `Cn1c2ccccc2c(=Nc2ccc(S(N)(=O)=O)cc2)c2ccccc21`: “inactive”. As for `CC12CCC(=O)CC13CCC2OC(O)C3` (stereo not given), the result was inactive.

Consider `CCCCCCC1C=CCCN1` (stereo not given), for which the outcome was inactive. With `CCC(C)SSc1ccccc1C(=O)Nc1ccc(Cl)cc1` (stereo not given), the pEC50 was < 3.70 and the pIC50 was 6.11. For `CC(C)CCCC(C)[C@H]1CCC2[C@@H]1CC[C@@H]1[C@@]3(C)CC[C@H](CCC=C(c4cc(Cl)c(OCC(=O)O)c(C(=O)O)c4)c4cc(Cl)c(OCC(=O)O)c(C(=O)O)c4)C[C@@H]3CC[C@@]21C` (stereo not given in full), the pEC50 was < 3.70 and the negative-log IC50 (pIC50) was 5.77. Take `CC1C(c2ccc3c(c2)OCO3)CC(Cl)CC12C=C1OCOC1=CC2=O` (stereo not given): the pEC50 is < 4.16 and the pIC50 is 4.32. With `NCCSSCCN`, the result was active. As to `CC(=O)NC(CC(C)C)C(=O)NC(Cc1ccccc1)C(=O)CCl` (stereo not drawn) (Ac-Leu-Phe-CH2Cl; configuration not given here), the pEC50 is < 3.70 and the pIC50 is 5.95. Consider `CC1(C)C(C#N)C(=O)N=C(N)C1C(N)=O` (stereo not given), for which the pEC50 was < 3.70 and the pIC50 is < 3.70. In the case of `Nc1nc2ccccc2n1CC(=O)NC12CC3CC(CC(C3)C1)C2`, the pEC50 is < 4.10 and the pIC50 was 4.44. As for `CN(C)c1ccc(C(=C2C=CC(=[N+](C)C)C=C2)c2ccc(N(C)C)cc2)cc1`, the outcome was inactive. For the compound `C=C1C(=O)O[C@H]2C3C(=C(C)CC[C@@H]12)C(=O)[C@@H]1OC31C` (stereo not given in full), the pEC50 was < 3.70 and the pIC50 is 6.17. The corresponding values for `O=C(/C=C/c1ccc(O)c(O)c1)OCc1ccccc1` are < 4.92 and 4.95.

For the compound `Nc1ccn(C2OC(COP(=O)(O)O)C(O)C2O)c(=O)n1` (stereo not given) (tested in a mixture with another compound), the pEC50 is < 3.70 and the pIC50 was 4.39.

Take `O=C(O)CNS(=O)(=O)c1ccc(NC(=O)c2cccc([N+](=O)[O-])c2)cc1`: the outcome was inactive. On to `[O-]c1on[n+]2c1Cc1ccccc1C2`, for which the pEC50 was < 3.70 and the negative logarithm of the IC50 (pIC50) was < 3.70. As to `Clc1nc(NC23CC4CC(CC(C4)C2)C3)nc(NC23CC4CC(CC(C4)C2)C3)n1`, the pEC50 is < 3.70 and the negative logarithm of the IC50 (pIC50) is 4.28. Turning to `C[Si](C)(C)/C(I)=C/CO`, the outcome was inactive. Turning to `CN1CCOC(C(NC(=O)c2ccccc2)c2ccccc2)C1=O` (stereo not given), the pEC50 was < 3.70 and the pIC50 is < 3.70.

As to `CCOC(=O)C1(C#N)C(C#N)(C#N)C12CCCCC2` (stereo not given) (tested in a mixture with another compound), the pEC50 is < 3.70 and the negative logarithm of the IC50 (pIC50) is 5.22.

As for `CC1(C)C(C#N)=[N+]([O-])C(C)(C)N1O`, the pEC50 is < 3.70 and the negative logarithm of the IC50 (pIC50) was 3.91. Take `COc1cc2c(cc1OC)[C@@H](C(O)c1ccccc1)NCC2` (stereo not given in full): the outcome was inactive. `CCOc1ccc(NC(=O)C(=O)NO)cc1`: the pEC50 was < 3.52 and the pIC50 was 3.75. On to `CC(O)CNC(=O)C(C)Oc1ccc(OCC2CCCCC2)cc1` (stereo not given), for which the pEC50 is < 3.55 and the negative-log IC50 (pIC50) is 4.60. For the compound `COc1ccc(CNc2nc3ccccc3nc2C(=O)O)cc1`, the pEC50 is < 3.70 and the pIC50 was 4.46. As to `Cc1ccc(S(=O)(=O)N/N=C/C2(c3ccccc3)c3ccccc3-c3ccccc32)cc1`, the pEC50 was < 3.70 and the negative-log IC50 (pIC50) was 4.95. As for `Cc1cc(S(=O)(=O)Nc2nc3ccccc3[nH]2)c(S)cc1Cl`, the pEC50 was < 3.70 and the pIC50 is 4.26.

With `CCOC(=O)/C(=C1/Nc2ccccc2S1)c1ncnc2nc[nH]c12`, the outcome was inactive. On to `CCCSc1nc(-c2ccc(OC)cc2)c(C#N)c(=O)n1C1OC(COC(C)=O)C(OC(C)=O)C(OC(C)=O)C1OC(C)=O` (stereo not given), for which the pEC50 was < 3.70 and the negative-log IC50 (pIC50) was < 3.70.

In the case of `CCOC(=O)C(CC1COc2ccccc2O1)C(=O)OCC` (stereo not given), the result was inactive. Take `COc1ccc2nc3c([N+](=O)[O-])ccc4c3c(c2c1)N(CCCN(C)C)C(=S)N4CCCN(C)C`: the pEC50 is < 5.70 and the pIC50 was 6.27. For the compound `CCOC(=O)C(=[N+]=[N-])C(=O)CN1C(=O)C2CC(C)=C(C)CC2C1O` (stereo not given), the pEC50 was < 3.41 and the pIC50 is < 3.41.

Consider `COC(=O)C1C2C(=O)NC(=O)C2C(c2ccc(-c3ccccc3)cc2)N1C1CCCCC1` (stereo not given), for which the pEC50 is < 3.87 and the pIC50 is 4.72.

With `NC(=O)C(O)C(O)C(N)=O` (stereo not given), the pEC50 is < 3.34 and the negative logarithm of the IC50 (pIC50) was < 3.34.
